Experimental findings from US9000154B2, “Rho kinase inhibitors” (Boehringer Ingelheim International GmbH, priority 2010, dated 2015) are described below.

In one experiment the target is T1, ROCKII (1-543) (Homo sapiens, UniProt O75116). The experiment can be described thus: IMAP Assay (fluorescence polarization, FAM S6 peptide). It is filed as biochemical. Set-up: 3 nM ROCKII (1-543) diluted in kinase reaction buffer. The conditions noted are these: IMAP FP, 1 nM ROCKII (1-543), 100 μM ATP; read-out: Assay 2 IC50. Here is the method: This assay is performed using FAM S6 substrate peptide (Catalogue #R7184) and IMAP FP Screening Express Kit detection reagents from Molecular Devices (Sunnyvale, Calif.) in IMAP kinase reaction buffer (Tris-HCl, pH 7.2, 10 mM MgCl2, 0.05% NaN3, 0.1% phosphate-free BSA) containing 1 mM DTT. Test compounds dissolved in neat DMSO at 0.3 mg/mL are serially diluted 1 to 3 for concentration response in 100% DMSO. The DMSO serial dilutions are further diluted 33.33-fold in kinase reaction buffer, and 10 μL of this buffer dilution is transferred to Corning black 96-well half area NBS plates for a final top concentration of 3 μg/mL in 1% DMSO. 10 μL aliquot of 3 nM ROCKII (1-543) diluted in kinase reaction buffer is added to each assay well for a final concentration of 1 nM kinase. 10 μL of a mixture of 600 nM FAM S6 peptide and 300 μM ATP diluted in kinase reaction buffer is added to each well for a final concentration of 200 nM peptide and 100 μM ATP. The kinase reaction mixture is incubated for 60 minutes at room temperature. Positive controls are reaction mixtures containing no test compound and negative controls (blanks) are reaction mixtures containing no kinase. The kinase reaction is stopped by addition of 60 μL IMAP progressive binding reagent (Catalog #R7284) diluted 400-fold in 1× Binding buffer A. After 30 min of incubation at room temperature, the plates are read for fluorescence polarization on Analyst Plate Reader using Ex 485 nm, Em 530 nm, and FL 505 dichroic mirror. The mP signals are converted to percent of control (POC) values using the formula: POC=100*(Signal−BCTRL)÷(PCTRL−BCTRL)
Where Signal is the test well signal, BCTRL is the average of background (negative control) well signals on the plate and PCTRL is the average of positive control well signals on the plate. For the concentration-responsive compounds, POC as a function of test compound concentration is fitted to a 4-parameter logistic equation of the form: Y=A+(B−A)/[1+(x/C)D]
Where A, B, C, and D are fitted parameters (parameter B is fixed at zero POC), and x and y are the independent and dependent variables, respectively. The IC50 is determined as the inflection point parameter, C.
Background: Polarisation of emitted light reports the rotation of a fluorescent probe.
Target sequence in this assay (O75116 1-543, species assumed): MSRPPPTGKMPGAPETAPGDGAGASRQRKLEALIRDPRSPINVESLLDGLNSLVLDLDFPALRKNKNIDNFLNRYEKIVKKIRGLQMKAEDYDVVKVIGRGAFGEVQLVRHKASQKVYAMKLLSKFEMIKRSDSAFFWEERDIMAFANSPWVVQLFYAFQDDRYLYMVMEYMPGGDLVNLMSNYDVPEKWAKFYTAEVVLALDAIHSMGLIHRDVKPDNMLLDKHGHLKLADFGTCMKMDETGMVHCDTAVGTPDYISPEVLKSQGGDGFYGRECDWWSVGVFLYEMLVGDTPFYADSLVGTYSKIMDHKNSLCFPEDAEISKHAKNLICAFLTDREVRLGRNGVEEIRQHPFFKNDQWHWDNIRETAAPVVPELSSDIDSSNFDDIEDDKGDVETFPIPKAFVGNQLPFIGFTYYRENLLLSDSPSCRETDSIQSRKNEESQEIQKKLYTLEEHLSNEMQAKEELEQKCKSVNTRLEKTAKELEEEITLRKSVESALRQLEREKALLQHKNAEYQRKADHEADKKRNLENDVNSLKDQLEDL
The IC50 is the midpoint of a concentration-inhibition curve. For the compound `CN(C)[C@H]1CCc2nc(NC(=O)c3cccc(Cn4cc(-c5ccc(C#N)cc5)nn4)c3)sc2C1` [Compound 4, 3-[4-(4-Cyano-phenyl)-[1,2,3]triazol-1-ylmethyl]-N—((S)-6-dimethylamino-4,5,6,7-tetrahydro-benzothiazol-2-yl)-benzamide], the half-inhibitory concentration (IC50) was 0.49 nM.

Take `CN(C)[C@H]1CCc2nc(NC(=O)c3cccc(Cn4cc(-c5ccc(C#N)cc5)cn4)c3)sc2C1` [Compound 5, 3-[4-(4-Cyano-phenyl)-pyrazol-1-ylmethyl]-N—((S)-6-dimethylamino-4,5,6,7-tetrahydro-benzothiazol-2-yl)-benzamide]: the IC50 stood at 0.2 nM.

As to `N#Cc1ccc(-c2cnn(Cc3cccc(C(=O)Nc4nc5c(s4)C[C@@H](N4CCOCC4)CC5)c3)c2)cc1` [Compound 7, 3-[4-(4-Cyano-phenyl)-pyrazol-1-ylmethyl]-N—((S)-6-morpholin-4-yl-4,5,6,7-tetrahydro-benzothiazol-2-yl)-benzamide], the IC50 was 0.4 nM.

As to `N#Cc1ccc(-c2cn(Cc3cccc(C(=O)Nc4nc5c(s4)C[C@@H](N4CCOCC4)CC5)c3)nn2)cc1` [Compound 8, 3-[4-(4-Cyano-phenyl)-[1,2,3]triazol-1-ylmethyl]-N—((S)-6-morpholin-4-yl-4,5,6,7-tetrahydro-benzothiazol-2-yl)-benzamide], the IC50 was 1 nM.

Consider `CN1CCN(C2CCc3nc(NC(=O)c4cccc(Cn5cc(-c6ccc(C#N)cc6)cn5)c4)sc3C2)CC1` (centres unmarked) [Compound 11, 3-[4-(4-Cyano-phenyl)-pyrazol-1-ylmethyl]-N-[6-(4-methyl-piperazin-1-yl)-4,5,6,7-tetrahydro-benzothiazol-2-yl]-benzamide], for which the IC50 worked out at 0.58 nM.

Turning to `N#CCCN[C@H]1CCc2nc(NC(=O)c3cccc(Cn4cc(-c5ccc(C#N)cc5)nn4)c3)sc2C1` [Compound 13, N—[(S)-6-(2-Cyano-ethylamino)-4,5,6,7-tetrahydro-benzothiazol-2-yl]-3-[4-(4-cyano-phenyl)-[1,2,3]triazol-1-ylmethyl]-benzamide], the concentration for half-maximal inhibition (IC50) was 1 nM.

As to `COCCN(C)C1CCc2nc(NC(=O)c3cccc(Cn4cc(-c5ccc(C#N)cc5)cn4)c3)sc2C1` (centres unmarked) [Compound 14, 3-[4-(4-Cyano-phenyl)-pyrazol-1-ylmethyl]-N-{6-[(2-methoxy-ethyl)-methyl-amino]-4,5,6,7-tetrahydro-benzothiazol-2-yl}-benzamide], the IC50 is 0.41 nM.

`N#Cc1ccc(-c2cnn(Cc3cccc(C(=O)Nc4nc5c(s4)C[C@@H](NCCC(F)(F)F)CC5)c3)c2)cc1` [Compound 20, 3-[4-(4-Cyano-phenyl)-pyrazol-1-ylmethyl]-N—[(S)-6-(3,3,3-trifluoro-propylamino)-4,5,6,7-tetrahydro-benzothiazol-2-yl]-benzamide]: the 50% inhibitory concentration (IC50) stood at 0.47 nM.

As to `CN1CCN(C2CCc3nc(NC(=O)c4cccc(Cn5cc(-c6ccc(C#N)cc6)nn5)c4)sc3C2)CC1` (centres unmarked) [Compound 23, 3-[4-(4-Cyano-phenyl)-[1,2,3]triazol-1-ylmethyl]-N-[6-(4-methyl-piperazin-1-yl)-4,5,6,7-tetrahydro-benzothiazol-2-yl]-benzamide], the concentration for half-maximal inhibition (IC50) worked out at 1.3 nM.

As for `CN1CCN([C@H]2CCc3nc(NC(=O)c4cccc(Cn5cc(-c6ccc(C#N)cc6)cn5)c4)sc3C2)CC1` [Compound 25, 3-[4-(4-Cyano-phenyl)-pyrazol-1-ylmethyl]-N—[(S)-6-(4-methyl-piperazin-1-yl)-4,5,6,7-tetrahydro-benzothiazol-2-yl]-benzamide], the half-inhibitory concentration (IC50) was determined as 0.65 nM.

In the case of `N#Cc1ccc(-c2cnn(Cc3cccc(C(=O)Nc4nc5c(s4)C[C@@H](N)CC5)c3)c2)cc1` [Compound 28, N—((S)-6-Amino-4,5,6,7-tetrahydro-benzothiazol-2-yl)-3-[4-(4-cyano-phenyl)-pyrazol-1-ylmethyl]-benzamide], the half-inhibitory concentration (IC50) amounted to 0.35 nM.

With `N#Cc1ccc(-c2cn(Cc3cccc(C(=O)Nc4nc5c(s4)C[C@@H](N)CC5)c3)nn2)cc1` [Compound 29, N—((S)-6-Amino-4,5,6,7-tetrahydro-benzothiazol-2-yl)-3-[4-(4-cyano-henyl)-[1,2,3]triazol-1-ylmethyl]-benzamide], the IC50 worked out at 0.73 nM.

Consider `CN(CCC(F)(F)F)[C@H]1CCc2nc(NC(=O)c3cccc(Cn4cc(-c5ccc(C#N)cc5)nn4)c3)sc2C1` [Compound 31, 3-[4-(4-Cyano-phenyl)-[1,2,3]triazol-1-ylmethyl]-N-{(S)-6-[methyl-(3,3,3-trifluoro-propyl)-amino]-4,5,6,7-tetrahydro-benzothiazol-2-yl}-benzamide], for which the IC50 came out at 3.1 nM.

Consider `N#CCCN[C@H]1CCc2nc(NC(=O)c3cccc(Cn4cc(-c5ccc(C#N)cc5)cn4)c3)sc2C1` [Compound 33, N—[(S)-6-(2-Cyano-ethylamino)-4,5,6,7-tetrahydro-benzothiazol-2-yl]-3-[4-(4-cyano-phenyl)-pyrazol-1-ylmethyl]-benzamide], for which the IC50 was determined as 0.35 nM.

In the case of `COCCN(C)[C@H]1CCc2nc(NC(=O)c3cccc(Cn4cc(-c5ccc(C#N)cc5)cn4)c3)sc2C1` [Compound 46, 3-[4-(4-Cyano-phenyl)-pyrazol-1-ylmethyl]-N-{(S)-6-[(2-methoxy-ethyl)-methyl-amino]-4,5,6,7-tetrahydro-benzothiazol-2-yl}-benzamide], the IC50 was 0.34 nM.

As to `COCCN[C@H]1CCc2nc(NC(=O)c3cccc(Cn4cc(-c5ccc(C#N)cc5)nn4)c3)sc2C1` [Compound 48, 3-[4-(4-Cyano-phenyl)-[1,2,3]triazol-1-ylmethyl]-N—[(S)-6-(2-methoxy-ethylamino)-4,5,6,7-tetrahydro-benzothiazol-2-yl]-benzamide], the IC50 came to 0.32 nM.

The next experiment concerns the target T1, ROCKII (1-543). The experiment can be described thus: Luciferin-Luciferase Assay (PKLight ATP detection). It is filed as biochemical. Details: ROCKII (1-543) (62,408 Da) was diluted in assay buffer. Conditions: 7.5 nM ROCKII (1-543), 750 nM ATP. As to the method: 1. Luciferin-Luciferase Assay
The activity of ROCKII (1-543) kinase was measured utilizing Cambrex PKLight ATP Detection Reagent, a homogeneous assay technology using luciferin-luciferase to quantify residual ATP. The assay was performed in 384-well low-volume, white, non-binding surface microtiter plates (Corning). The assay buffer was 25 mM HEPES, pH 7.5, 10 mM MgCl2, 50 mM KCl, 0.2% BSA, 0.01% CHAPS, 100 μM Na3VO4 and 0.5 mM DTT. Test compounds, dissolved in neat DMSO at 500 μg/mL, were serially diluted for dose response for a final starting concentration of 3 μg/mL in 1% DMSO of assay buffer. ROCKII (1-543) (62,408 Da) was diluted in assay buffer to a final concentration of 7.5 nM in a total volume of 15 μL. Positive controls were reaction mixtures containing no test compound; negative controls (blanks) were reaction mixtures containing no kinase. After 15 minutes of pre-incubation of the test compounds with the kinase, a mixture of ATP and peptide substrate (AKRRRLSSLRA) in assay buffer was added to each well for a final concentration of 750 nM ATP and 500 nM peptide, respectively. After 90 minutes of incubation of the kinase reaction at 28° C. temperature, 10 μL of PKLight ATP Detection Reagent (warmed to room temperature previously) was added to each well. The assay plate was incubated at room temperature for additional 15 minutes and then read on an Analyst in luminescence mode. Dose-response experiments for each of the test compounds were conducted in quadruplet. IC50 values of test compounds represent 50% response of the positive control from the dose-response curve.
Target sequence in this assay (O75116 1-543): as the sequence (O75116 1-543, species assumed) above
`N#Cc1cccc(-c2ccnc(Cc3cccc(C(=O)Nc4nc5c(s4)C[C@@H](N4CCOCC4)CC5)c3)n2)c1` [Compound 36, 3-[4-(3-Cyano-phenyl)-pyrimidin-2-ylmethyl]-N—((S)-6-morpholin-4-yl-4,5,6,7-tetrahydro-benzothiazol-2-yl)-benzamide] gave an IC50 of 9.9 nM.

Compound `N#Cc1ccc(-c2cnn(Cc3cccc(C(=O)Nc4nc5c(s4)CC(NCC(F)F)CC5)c3)c2)cc1` (centres unmarked) [Compound 51, 3-[4-(4-Cyano-phenyl)-pyrazol-1-ylmethyl]-N-[6-(2,2-difluoro-ethylamino)-4,5,6,7-tetrahydro-benzothiazol-2-yl]-benzamide] came in with an IC50 of 1.8 nM.

In the case of `N#Cc1ccc(-c2cn(Cc3cccc(C(=O)Nc4nc5c(s4)CC(NCC(F)F)CC5)c3)nn2)cc1` (centres unmarked) [Compound 52, 3-[4-(4-Cyano-phenyl)-[1,2,3]triazol-1-ylmethyl]-N-[6-(2,2-difluoro-ethylamino)-4,5,6,7-tetrahydro-benzothiazol-2-yl]-benzamide], half-maximal inhibition (IC50) required 9.4 nM.

With `CN(CCC#N)[C@H]1CCc2nc(NC(=O)c3cccc(Cn4cc(-c5ccc(C#N)cc5)cn4)c3)sc2C1` [Compound 53, N-{(S)-6-[(2-Cyano-ethyl)-methyl-amino]-4,5,6,7-tetrahydro-benzothiazol-2-yl}-3-[4-(4-cyano-phenyl)-pyrazol-1-ylmethyl]-benzamide], the IC50 was 1.9 nM.
